# Reference: US9745581B2, “Methods of treating and diagnosing diseases using agents that regulate the alternative splicing pathway” (Yissum Research Development Company of the Hebrew …, priority 2012, dated 2017)
# Entries after “also recorded” stand apart in the source; their conditions may differ.
# Experiments:
# Panc-1 cells = assay: Anisomycin-induced cell death of Panc-1 cells expressing Mnk2a, with or without p38 inhibitor; type: cell-based, human; conditions: Panc-1, 0.5 μM anisomycin, 20 μM SB203580, FIG. 5J
# Protocol: After selection with hygromycin transductants were maintained in growth factor-free medium in suspension for 48 h. Cell death was measured using the trypan blue exclusion assay. (J) Human pancreatic cancer cells Panc-1 were seeded on 96-well plates (6000 cells/well). Following starvation cells were treated with 0.5 μM anisomycin in the presence or absence of 20 μM SB203580. (*, **p≦0.01). (K) MCF-10A cells were transduced as in (I). After selection cells were seeded in 6-well plates. 24 h later cells were serum starved in a growth factor-free medium for 24 h. Following starvation cells were treated with 0.5 M Sorbitol (to induce osmotic shock) and 24 h later were stained with trypan blue (n=2). (L) MCF-10A transduced with the indicated retroviruses encoding for shRNAs against Mnk2a were seeded as in (K). (*, p≦0.01, ** p≦0.05). […] 10 days post selection with hygromycin cells were assessed for colony formation with methylene blue staining. n=3. […]
# Survival and apoptosis assays: MCF-10A or Panc-1 cells were transduced with the indicated retroviruses. […] Cells were fixed and stained with methylene blue and the absorbance at 650 nm of the acid-extracted stain was measured on a plate reader (BioRad) and was normalized to cell absorbance at “Time 0”. […] 10 μl of the cell suspension was mixed with 10 μl of 4% trypan blue solution and live/dead cells were counted in Bio-Rad TC-10 Automated Cell Counter. […]
# MCF-10A cells [1] = assay: Soft agar colony formation of MCF-10A cells co-transduced with Mnk2a and oncogenic Ras; type: cell-based, human; conditions: H-RAS V12, colonies counted 14 days later, FIGS. 4F-G
# Protocol: (§1) (C-D). […] (*, **, ***p≦0.01n=3).
# Anchorage-independent growth: Colony formation in soft agar was assayed as described previously (17). Plates were incubated at 37° C. and 5% CO2. After 10-18 days, colonies were counted from ten different fields in each of two wells for each transductant pool and the average number of colonies per well was calculated. The colonies were stained and photographed under a light microscope at 100× magnification.
# p38 = conditions: MCF-10A, 1 μM anisomycin, 10 μM SB203580, FIG. 4E
# Protocol: (E) MCF-10A cells transduced with retroviruses containing the indicated Mnk2 isoforms or a kinase dead version of Mnk2a (Mnk2aKD) or with isoform specific shRNAs against Mnk2a were treated with 1 μM anisomycin, in the presence or absence of 10 μM SB203580. Cells were lysed and proteins were subjected to Western blot analysis with the indicated antibodies.
# Immunoblotting: Cells were lysed in Laemmli buffer and analyzed for total protein concentration as described previously (17). 30 μg of total protein from each cell lysate was separated by SDS-PAGE and transferred to a nitrocellulose membrane. The membranes were blocked, probed with antibodies and detected using enhanced chemiluminescence. Primary antibodies were anti phospho-eIF4E Ser209 (1:1000), eIF4E (1:1000), phospho-p38 (Thr180/Tyr182) (1:1000), phospho-MNK (T197/T202) (1:1000), phospho-MK2 (1:1,000), MK2 (1:1,000), (Cell Signaling Technology). […] Secondary antibodies were HRP-conjugated goat anti-mouse, goat anti-rabbit or donkey anti-goat IgG (H+L) (1:10,000, Jackson Laboratories).
# MCF-10A cells [2] = assay: Cell death induced by constitutively active p38α in MCF-10A cells expressing Mnk2a; type: cell-based, human; conditions: 20 μM SB203580 for 48 hours, FIGS. 4A-B
# From the text: as §1
# [3] = system: Ras-transformed MCF-10A breast cells; assay: Colony survival of Ras-transformed MCF-10A cells after PNA incubation; type: cell-based, human; conditions: 0.05 μM PNA for 5 hours, seeded 20 cells/well, colonies counted 14 days later, versus scrambled PNA
# Protocol: (§2) FIGS. 36A-C. […] Ras-transformed MCF-10A cells were incubated for 5 hours with 0.05 μM scrambled (non-specific) PNA or MNK2a specific PNA (see the position of the PNA marked in red in the scheme). 24 h later cells were counted and seeded in low density (20 cells/well) in 6-well plates. 14 days later, surviving colonies were counted and photographed.
# Mnk2 splicing = assay: RT-PCR of Mnk2 splicing after PNA treatment; type: cell-based, human; conditions: Ras-transformed MCF-10A cells, FIG. 36C
# Protocol: as §2
# RT-PCR: Total RNA was extracted with Tri reagent (Sigma) and 2 μg of total RNA was reverse transcribed using the AffinityScript (Stratagene) reverse transcriptase. PCR was performed on 1/10 (2 μl) of the cDNA, in 50 μl reactions containing 0.2 mM dNTP mix, 10×PCR buffer with 15 mM MgCl2 (ABI), 2.5 units of TaqGold (ABI) and 0.2 […]; 5% (v/v) DMSO was included in some reactions. PCR conditions were 95° C. for 5 min, then 33 cycles of 94° C. for 30 s, 57° C. for 30 s and 72° C. for 45 s, followed by 10 min at 72° C. PCR products were separated on 1.5% or 2% agarose gels. Primers are listed herein below.
# Mnk1/2 [4] = assay: Western blot of p38-MAPK phosphorylation in MEFs treated with Mnk1/2 kinase inhibitor; type: cell-based, mouse; conditions: CGP 57380 for 4 h, FIG. 5E
# From the text: (A) MCF-10A cells were transduced with the indicated retroviruses encoding for Mnk2 isoforms or Mnk2aKD. Total protein from stable pools was extracted and separated on SDS-PAGE and was subjected to Western blot analysis with the indicated antibodies. Numbers represent ratio of p-p38/total p38 normalized to that of pBABE (arbitrarily set at 1)±SD (n=2). (B) MCF-10A cells described in (A) were transduced by H-RAS^V12 and after selection cells were lysed and subjected to Western blot analysis with the indicated antibodies. Numbers representing ratio of p-p38/total p38 were calculated as described in (A) (n=2). (C) Immortal MEFs from Mnk2^−/− mouse were transduced with retrovirus encoding either no mammalian protein (pBABE) or various Mnk2 variants. […] (D) Immortal MEFs from WT, Mnk1^−/− or Mnk2^−/− mice were lysed and analyzed as in (A). (E) Immortal MEFs described in (D) were seeded in 6-well plates. […]
# (A) Cell lines from breast immortal or cancer (MCF-7, MDA-MB-231, SUM-149, SUM-159, MDA-MB-468) cell lines were seeded in 6-well plates and 24 h later were lysed and subjected to Western blot analysis with the indicated antibodies. (B-C) Quantitation of p38 and eIF4E phosphorylation levels. […] (G) MCF-10A cells were seeded in 6-well plates, treated and analyzed as in (D). […]
# Mnk1/2 [5] = assay: Q-RT-PCR of p38α target genes FOS and COX-2 in MCF-10A cells; type: cell-based, human; conditions: serum starved, CGP 57380 for 8-10 h, FIG. 7E
# Protocol: (C). RNA from WT MEFs, Mnk2^−/− MEFS and Mnk2^−/− MEFS transduced with Mnk2a was extracted and the levels of FOS and COX-2 were analyzed by Q-RT-PCR. (D). RNA from MCF-10A cells transduced with the indicated Mnk2 isoforms and the indicated Mnk2a mutants was extracted and the levels of FOS and COX-2 were measured as described above. (E). MCF-10A cells were seeded in 10 cm plates. 24 h later, cells were serum starved for an additional 24 h, then treated with Mnk1/2 inhibitor CGP 57380 at the indicated concentrations for 8-10 h. RNA from cells was extracted and the levels of p38α-targets genes; FOS and COX-2 were measured by Q-RT-PCR as described above. (F). MCF-10A cells described in (D) were serum starved for 24 h and then treated with 0.5 μM anisomycin for 24 h and were subjected to trypan-blue exclusion assay (Graph). Bottom panel: cells described in (F) were centrifuged and lysed with Laemmli buffer and proteins were subjected to Western blot analysis. […]
# Q-RT-PCR: Total RNA was extracted with Tri reagent (Sigma) and 2 μg of total RNA was reverse transcribed using the AffinityScript (Stratagene) reverse transcriptase. The mRNA levels of FOS, and COX-2 were determined in MCF-10A breast cell lines by performing quantitative PCR with SYBER Green (SYBR® Premix Ex Taq™ # RR041A) using the CFX96 (Bio-Rad) machine. […]
# Mnk1/2 [6] = assay: Western blot of p38-MAPK phosphorylation in MCF-10A cells treated with Mnk1/2 kinase inhibitor; type: cell-based, human; conditions: CGP 57380 for 4 h, FIG. 8G
# Protocol: (A) Cell lines from breast immortal or cancer (MCF-7, MDA-MB-231, SUM-149, SUM-159, MDA-MB-468) cell lines were seeded in 6-well plates and 24 h later were lysed and subjected to Western blot analysis with the indicated antibodies. (B-C) Quantitation of p38 and eIF4E phosphorylation levels. The level of phosphorylated p38 and eIF4E was normalized to that of their total level. Results are presented as an average±SD (n=2). (D-F) Immortal MEFs from WT (Mnk 1/2 WT), Mnk1^−/− or Mnk2^−/− mice were seeded in 6-well plates. 24 h later cells were either treated with the vehicle (DMSO) or treated with the Mnk1/2 kinase inhibitor, CGP 57380 (CGP) at the indicated concentrations for 4 h, and subjected to Western blot analysis with the indicated antibodies. (G) MCF-10A cells were seeded in 6-well plates, treated and analyzed as in (D). […] C-myc (nuclear) and caspase-2 (cytoplasmic) served as fractionation controls.
compound,measurement,setting,value
C[S+]([O-])c1ccc(-c2nc(-c3ccncc3)c(-c3ccc(F)cc3)[nH]2)cc1 (stereo not shown) [SB203580],anisomycin-induced cell death of cells expressing Mnk2a,Panc-1 cells,partially rescued; also recorded: rescued Panc-1 cells from Mnk2a-induced sensitivity to anisomycin treatment
same,colony formation in soft agar of cells co-transduced with Mnk2a and Ras,MCF-10A cells [1],rescued the ability of cells co-transduced with Mnk2a and Ras to form colonies in soft agar
same,p38 activity measured by phosphorylation of its substrate MK-2,p38,efficiently inhibited p38 activity
same,cell death upon active p38-MAPK transduction in cells expressing Mnk2a,MCF-10A cells [2],inhibited by SB203580
"PNA: PNA based molecule hybridizing to the bridging region between exon 14b and the preceding intron, preventing Mnk2b generation; likely SEQ ID NO: 157 (AGACTTCCACCCTGTCAG; PNA modified oligonucleotide, pattern not given here)",survival of Ras-transformed MCF-10A breast cells (surviving colonies),[3],reduces survival; also recorded: decreased the survival
same,Mnk2 splicing (Mnk2a level) by RT-PCR,Mnk2 splicing,can modulate Mnk2 splicing to elevate Mnk2a
Nc1ncnc2n[nH]c(Nc3ccc(F)cc3)c12 [CGP 57380],p38 phosphorylation in Mnk2-/- MEFs,"Mnk1/2 [4]; Mnk2-/- MEFs, FIG. 8D-F",could not be further reduced
same,"p38-MAPK phosphorylation (T180, Y182) in WT and Mnk1-/- MEFs",Mnk1/2 [4]; WT and Mnk1-/- MEFs,reduced p38-MAPK phosphorylation
same,"expression of p38-MAPK target genes (FOS, COX-2)",Mnk1/2 [5],reduced the expression p38-MAPK target genes
same,p38-MAPK phosphorylation in MCF-10A cells,Mnk1/2 [6],reduced p38-MAPK phosphorylation
